Patent publication US8217035B2, “Pyrimidine derivatives used as PI-3-kinase inhibitors” (Novartis AG, priority 2006, dated 2012)
Where two headings read alike, the source gives them in different places.

Tests used:
[1] = molecular target: PI3 kinase alpha (Homo sapiens, UniProt P42336); assay: PI3K ATP depletion assay (Biological Method 1, Assay 3; KinaseGlo luminescence); type: biochemical; settings: ATP depletion assay, read-out: PI3 Kinase Alpha, IC50
Procedure, shortened: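 Compound in DMSO was mixed with 10 nM PI3 kinase and 5 μg/mL phosphatidylinositol, and the reaction was started with 2 μM ATP. It ran to about 50% ATP depletion and was stopped with KinaseGlo.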

[2] = test system: pSer473 Akt in A2780 cells; assay: pSer473 Akt assay to monitor PI3K pathway in A2780 cells (Biological Method 2, MSD); type: cell-based; settings: Homo sapiens, inhibition of Akt phosphorylation
Procedure, shortened: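 A2780 ovarian cancer cells in DMEM/10% FBS were treated with compound for 1 h at 37 °C, then lysed. pSer473-Akt and total Akt were measured by MSD electrochemiluminescence immunoassay. The pSer473/total Akt ratio gave % inhibition versus DMSO, from which EC50 was derived.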

[3] = test system: A2780 ovarian cancer cells; assay: Cellular proliferation in A2780 cells, Cell Titer Glo (Biological Method 4); type: cell-based; settings: Homo sapiens
Procedure, shortened: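 A2780 cells seeded at 1,000/well in DMEM with 10% FBS, at least 2 h before compound, then exposed 72 h at 37 °C, 5% CO2. Viable cells measured by Cell Titer Glo luminescence; EC50 calculated from duplicate conditions.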

[4] = ovarian cancer cell line A2780, Biological Method 4

Chain of PI3 kinase alpha (P42336 whole entry): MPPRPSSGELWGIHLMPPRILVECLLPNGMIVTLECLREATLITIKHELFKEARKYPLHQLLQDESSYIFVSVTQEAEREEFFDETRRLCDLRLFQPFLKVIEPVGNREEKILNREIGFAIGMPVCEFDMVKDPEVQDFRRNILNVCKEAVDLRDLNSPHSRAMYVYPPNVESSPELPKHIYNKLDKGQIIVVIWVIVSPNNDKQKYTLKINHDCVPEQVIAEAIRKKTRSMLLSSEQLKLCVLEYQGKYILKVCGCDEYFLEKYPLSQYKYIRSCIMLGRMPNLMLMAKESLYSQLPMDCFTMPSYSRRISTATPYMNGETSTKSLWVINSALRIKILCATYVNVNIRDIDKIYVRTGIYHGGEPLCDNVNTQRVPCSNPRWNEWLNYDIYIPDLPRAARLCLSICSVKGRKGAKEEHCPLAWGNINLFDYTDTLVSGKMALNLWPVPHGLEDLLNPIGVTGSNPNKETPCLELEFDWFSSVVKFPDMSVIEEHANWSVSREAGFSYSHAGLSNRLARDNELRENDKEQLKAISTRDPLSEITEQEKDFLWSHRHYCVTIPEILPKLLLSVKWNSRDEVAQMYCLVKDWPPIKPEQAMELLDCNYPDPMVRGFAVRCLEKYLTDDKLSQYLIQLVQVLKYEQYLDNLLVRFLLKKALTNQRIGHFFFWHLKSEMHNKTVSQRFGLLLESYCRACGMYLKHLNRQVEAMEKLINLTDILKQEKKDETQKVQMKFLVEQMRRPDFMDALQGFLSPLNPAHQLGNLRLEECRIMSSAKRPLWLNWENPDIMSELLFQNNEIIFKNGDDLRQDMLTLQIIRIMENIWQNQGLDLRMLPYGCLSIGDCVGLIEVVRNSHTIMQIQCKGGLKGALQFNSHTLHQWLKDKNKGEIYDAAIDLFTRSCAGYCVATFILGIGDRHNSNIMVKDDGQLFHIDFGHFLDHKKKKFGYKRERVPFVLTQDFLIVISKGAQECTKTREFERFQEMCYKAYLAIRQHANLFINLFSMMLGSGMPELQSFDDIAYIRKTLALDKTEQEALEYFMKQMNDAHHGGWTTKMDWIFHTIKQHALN
Chain of PI3 kinase alpha (P27986 whole entry partner): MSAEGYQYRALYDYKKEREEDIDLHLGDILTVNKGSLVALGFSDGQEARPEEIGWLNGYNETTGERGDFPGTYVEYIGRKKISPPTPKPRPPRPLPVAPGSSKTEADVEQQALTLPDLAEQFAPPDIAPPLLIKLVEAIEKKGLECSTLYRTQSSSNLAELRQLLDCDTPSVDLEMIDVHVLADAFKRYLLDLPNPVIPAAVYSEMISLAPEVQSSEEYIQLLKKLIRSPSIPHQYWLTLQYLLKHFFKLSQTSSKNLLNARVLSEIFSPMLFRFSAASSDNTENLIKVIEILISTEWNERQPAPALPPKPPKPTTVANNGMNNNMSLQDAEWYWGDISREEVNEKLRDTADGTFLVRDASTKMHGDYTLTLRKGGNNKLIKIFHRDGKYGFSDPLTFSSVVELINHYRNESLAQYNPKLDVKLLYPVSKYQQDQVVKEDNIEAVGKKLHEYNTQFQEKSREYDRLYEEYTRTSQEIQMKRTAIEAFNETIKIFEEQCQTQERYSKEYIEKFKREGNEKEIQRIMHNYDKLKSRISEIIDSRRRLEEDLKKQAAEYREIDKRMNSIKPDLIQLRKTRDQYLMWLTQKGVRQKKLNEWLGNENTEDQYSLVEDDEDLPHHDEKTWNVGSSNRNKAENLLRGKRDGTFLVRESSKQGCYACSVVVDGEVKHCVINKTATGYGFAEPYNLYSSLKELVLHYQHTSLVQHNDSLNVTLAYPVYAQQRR

Row | IC50 [1] | EC50 ([2]; A2780 cells) | EC50 ([3]; ovarian cancer cell line A2780) | IC50 ([1]; Biological Method 1) | EC50 ([2]; A2780, Biological Method 2) | EC50 [3, 4] | EC50 ([2]; A2780) | SMILES
1 | < 1000 nM | < 1000 nM | < 1000 nM |  |  |  |  | Nc1ncc(-c2cc(Nc3ccc4cn[nH]c4c3)nc(N3CCOCC3)n2)cn1 [Compound 135]
2 | < 1000 nM | < 1000 nM | < 1000 nM |  |  |  |  | COC(=O)N1CCC(Oc2cc(-c3cnc(N)nc3C(F)(F)F)nc(N3CCOCC3)n2)CC1 [Compound 70]
3 | < 1000 nM | < 1000 nM | < 10000 nM |  |  |  |  | CC(C)N1CC[C@H](Oc2ccc(Nc3cc(-c4cnc(N)cc4C(F)(F)F)nc(N4CCOCC4)n3)cn2)C1 [Compound 188]
4 | < 1000 nM | < 1000 nM | < 1000 nM |  |  |  |  | Nc1ncc(-c2cc(OC3CCN(C(=O)OC4CCCC4)CC3)nc(N3CCOCC3)n2)c(N)n1 [Compound 97]
5 |  |  |  | < 1000 nM | < 10000 nM | < 10000 nM |  | Cc1c(-c2cnc(N)nc2)nc(N2CCOCC2)nc1-c1ccnc(Nc2ncc(-c3ccccc3)s2)c1 [Compound 215]
6 | < 1000 nM | < 1000 nM | < 10000 nM |  |  |  |  | Nc1ccc(-c2cc(Nc3ccc(S(N)(=O)=O)cc3)nc(N3CCOCC3)n2)cn1 [Compound 190]
7 | < 1000 nM |  | < 10000 nM |  |  |  | < 1000 nM | CC(C)N1CCC(Oc2ccc(Nc3cc(-c4cnc(N)cc4C(F)(F)F)nc(N4CCOCC4)n3)cc2)CC1 [Compound 552]
8 | < 1000 nM | < 1000 nM | < 1000 nM |  |  |  |  | CS(=O)(=O)Nc1ncccc1-c1cc(-c2cnc(N)cc2C#N)nc(N2CCOCC2)n1 [Compound 136]
9 | < 1000 nM | < 1000 nM | < 1000 nM |  |  |  |  | Cc1c(Nc2ccc(OC3CCN(C)CC3)nc2)nc(N2CCOCC2)nc1-c1cnc(N)nc1 [Compound 42]
10 | < 1000 nM | < 1000 nM | < 1000 nM |  |  |  |  | COc1nc(N)ncc1-c1cc(Nc2cnc3ccccc3c2)nc(N2CCOCC2)n1 [Compound 161]
11 |  |  |  | < 1000 nM | < 10000 nM | < 25000 nM |  | Cc1c(Nc2ccc(OC(CO)CO)nc2)nc(N2CCOCC2)nc1-c1cnc(N)nc1 [Compound 212]
12 | < 1000 nM | < 1000 nM | < 1000 nM |  |  |  |  | CN(C)CCOc1ccc(Nc2cc(-c3cnc(N)nc3)nc(N3CCOCC3)n2)cn1 [Compound 36]
13 | < 1000 nM | < 1000 nM | < 10000 nM |  |  |  |  | Nc1ncc(-c2cc(O[C@H]3CCCN(C(=O)OC4CCCC4)C3)nc(N3CCOCC3)n2)c(N)n1 [Compound 186]
14 | < 1000 nM | < 1000 nM | < 1000 nM |  |  |  |  | Nc1ncc(-c2cc(Nc3ccncc3C(F)(F)F)nc(N3CCOCC3)n2)c(C(F)(F)F)n1 [Compound 158]
15 | < 1000 nM | < 1000 nM | < 1000 nM |  |  |  |  | CS(=O)(=O)c1cc(Nc2cc(-c3cnc(N)cc3C(F)(F)F)nc(N3CCOCC3)n2)ccn1 [Compound 90]
16 | < 1000 nM | < 1000 nM | < 1000 nM |  |  |  |  | Nc1ccc(-c2cc(-n3ncc4c(N)cccc43)nc(N3CCOCC3)n2)cn1 [Compound 168]
17 |  |  |  | < 1000 nM | < 10000 nM | < 25000 nM |  | CS(=O)(=O)c1ccc(Nc2cc(-c3cnc(N)[nH]c3=O)nc(N3CCOCC3)n2)cn1 [Compound 208]
18 | < 1000 nM | < 1000 nM | < 1000 nM |  |  |  |  | CS(=O)(=O)c1cccc(-c2cc(-c3cnc(N)cc3C(F)(F)F)nc(N3CCOCC3)n2)c1 [Compound 95]
19 |  |  |  | < 1000 nM | < 1000 nM | < 1000 nM |  | Nc1ncc(-c2cc(Nc3cnc4ccccc4c3)nc(N3CCOCC3)n2)cc1F [Compound 202]
20 | < 1000 nM | < 1000 nM | < 10000 nM |  |  |  |  | NC(=O)c1cccc(Nc2cc(-c3ccc(N)nc3)nc(N3CCOCC3)n2)c1 [Compound 166]
21 | < 1000 nM | < 1000 nM | < 1000 nM |  |  |  |  | Cc1nc(N)ncc1-c1nc(N2CCOCC2)nc(Nc2cnc3ccccc3c2)c1C [Compound 185]
22 | < 1000 nM | < 1000 nM | < 1000 nM |  |  |  |  | Cc1c(Nc2ncc(C#N)s2)nc(N2CCOCC2)nc1-c1cnc(N)nc1 [Compound 71]
23 | < 1000 nM | < 1000 nM | < 10000 nM |  |  |  |  | CC(C)N1CCC(Oc2cncc(-c3cc(-c4cnc(N)cc4C(F)(F)F)nc(N4CCOCC4)n3)c2)CC1 [Compound 79]
24 | < 1000 nM | < 1000 nM | < 1000 nM |  |  |  |  | CCN(CC)CCc1csc(Nc2cc(-c3cnc(N)cc3C(F)(F)F)nc(N3CCOCC3)n2)n1 [Compound 13]
25 | < 1000 nM | < 1000 nM | < 10000 nM |  |  |  |  | Nc1cc(C(F)(F)F)c(-c2cc(OC3CCN(C(=O)c4ccccc4)CC3)nc(N3CCOCC3)n2)cn1 [Compound 83]
26 | < 1000 nM | < 1000 nM | < 1000 nM |  |  |  |  | Cc1cc(Nc2cc(-c3cnc(N)nc3C(F)(F)F)nc(N3CCOCC3)n2)ccn1 [Compound 52]

Row | IC50 [1] | EC50 ([2]; A2780 cells) | EC50 ([3]; ovarian cancer cell line A2780) | IC50 ([1]; Biological Method 1) | EC50 ([2]; A2780, Biological Method 2) | EC50 [3, 4] | EC50 ([2]; A2780) | SMILES
27 | < 1000 nM | < 1000 nM | < 10000 nM |  |  |  |  | COC(=O)N1CCC(Oc2cc(-c3cnc(N)cc3C(F)(F)F)nc(N3CCOCC3)n2)CC1 [Compound 117]
28 | < 1000 nM | < 1000 nM | < 1000 nM |  |  |  |  | COC(=O)N1CCC(Oc2cc(-c3cnc(N)[nH]c3=O)nc(N3CCOCC3)n2)CC1 [Compound 31]
29 | < 1000 nM | < 1000 nM | < 1000 nM |  |  |  |  | CN1CCC(Oc2ccc(Nc3cc(-c4cnc(N)nc4)nc(N4CCOCC4)n3)cn2)C1 (stereo not drawn) [Compound 35]
30 | < 1000 nM | < 1000 nM | < 1000 nM |  |  |  |  | Nc1ncc(-c2cc(OC3CCOCC3)nc(N3CCOCC3)n2)c(=O)[nH]1 [Compound 50]
31 | < 1000 nM | < 1000 nM | < 10000 nM |  |  |  |  | N#Cc1ccnc(Nc2cc(-c3ccc(N)nc3)nc(N3CCOCC3)n2)c1 [Compound 152]
32 | < 1000 nM | < 1000 nM | < 1000 nM |  |  |  |  | CC(=O)N1CCC(Oc2cc(-c3cnc(N)[nH]c3=O)nc(N3CCOCC3)n2)CC1 [Compound 30]
33 | < 1000 nM | < 1000 nM | < 10000 nM |  |  |  |  | CS(=O)(=O)c1cccc(Nc2cc(-c3ccc(N)nc3)nc(N3CCOCC3)n2)c1 [Compound 139]
34 | < 1000 nM | < 1000 nM | < 1000 nM |  |  |  |  | Nc1ncc(-c2cc(Nc3ccc4c(c3)OCCO4)nc(N3CCOCC3)n2)c(C(F)(F)F)n1 [Compound 164]
35 | < 1000 nM | < 1000 nM | < 1000 nM |  |  |  |  | COc1cccc2ncc(Nc3cc(-c4cnc(N)nc4C(F)(F)F)nc(N4CCOCC4)n3)cc12 [Compound 54]
36 | < 1000 nM |  | < 1000 nM |  |  |  | < 1000 nM | COc1cc(Nc2cc(-c3cnc(N)cc3C(F)(F)F)nc(N3CCOCC3)n2)ccc1OC1CCN(C(C)C)CC1 [Compound 553]
37 | < 1000 nM | < 1000 nM | < 1000 nM |  |  |  |  | Nc1ncc(-c2cc(Oc3cccnc3)nc(N3CCOCC3)n2)cn1 [Compound 8]
38 | < 1000 nM | < 1000 nM | < 10000 nM |  |  |  |  | COc1ccc(Nc2cc(-c3cnc(N)nc3N)nc(N3CCOCC3)n2)cn1 [Compound 73]
39 | < 1000 nM | < 1000 nM | < 1000 nM |  |  |  |  | CS(=O)(=O)c1cccc(-c2cc(-c3cnc(N)cc3Cl)nc(N3CCOCC3)n2)c1 [Compound 165]
40 | < 1000 nM | < 1000 nM | < 1000 nM |  |  |  |  | CC(C)C(=O)N1CCC(Oc2cc(-c3cnc(N)nc3N)nc(N3CCOCC3)n2)CC1 [Compound 134]
41 | < 1000 nM | < 1000 nM | < 1000 nM |  |  |  |  | Cc1cc(Nc2cc(-c3ccc(N)nc3)nc(N3CCOCC3)n2)ccn1 [Compound 130]
42 | < 1000 nM | < 1000 nM | < 10000 nM |  |  |  |  | COc1cccc2ncc(Nc3cc(-c4cnc(N)cc4C(F)(F)F)nc(N4CCOCC4)n3)cc12 [Compound 140]
43 | < 1000 nM | < 1000 nM | < 10000 nM |  |  |  |  | CS(=O)(=O)c1ccnc(Nc2cc(-c3cnc(N)cc3C(F)(F)F)nc(N3CCOCC3)n2)c1 [Compound 109]
44 |  |  |  | < 1000 nM | < 10000 nM | < 1000 nM |  | Nc1cc(C(F)(F)F)c(-c2cc(Nc3cccc(S(=O)(=O)N4CCCCC4)c3)nc(N3CCOCC3)n2)cn1 [Compound 207]
45 | < 1000 nM | < 1000 nM | < 1000 nM |  |  |  |  | Nc1cc(F)c(-c2cc(Nc3cnc4ccccc4c3)nc(N3CCOCC3)n2)cn1 [Compound 4]
46 | < 1000 nM | < 1000 nM | < 1000 nM |  |  |  |  | CS(=O)(=O)N1CCC(Oc2cc(-c3cnc(N)nc3C(F)(F)F)nc(N3CCOCC3)n2)CC1 [Compound 74]
47 | < 1000 nM | < 1000 nM | < 10000 nM |  |  |  |  | CC(C)C(=O)N1CCC[C@@H](Oc2cc(-c3cnc(N)nc3N)nc(N3CCOCC3)n2)C1 [Compound 137]
48 | < 1000 nM | < 1000 nM | < 1000 nM |  |  |  |  | Nc1ncc(-c2cc(Nc3ccncc3C(F)(F)F)nc(N3CCOCC3)n2)cn1 [Compound 43]
49 | < 1000 nM | < 1000 nM | < 1000 nM |  |  |  |  | Nc1ncc(-c2cc(OC3CCN(C(=O)c4ccccc4)CC3)nc(N3CCOCC3)n2)c(N)n1 [Compound 122]
50 | < 1000 nM | < 1000 nM | < 1000 nM |  |  |  |  | COC(=O)N1CCC(Oc2cc(-c3cnc(N)nc3N)nc(N3CCOCC3)n2)CC1 [Compound 81]
51 | < 1000 nM | < 1000 nM | < 1000 nM |  |  |  |  | CS(=O)(=O)Nc1ncccc1-c1cc(-c2cnc(N)cc2Cl)nc(N2CCOCC2)n1 [Compound 170]
52 | < 1000 nM | < 1000 nM | < 1000 nM |  |  |  |  | CN1CCN(c2ccc(Nc3cc(-c4cnc(N)nc4)nc(N4CCOCC4)n3)cn2)CC1 [Compound 51]
